SMILES strings stand for the structures.

This test relates to Plasmodium falciparum. The test is described as follows: GSK_TCMDC: Inhibition of Plasmodium falciparum 3D7 in whole erythrocytes, using parasite LDH activity as an index of growth. To be noted: Plasmodium falciparum, 3D7. In kind it is functional, organism-based.
`CCN(CC)CCN(CCCc1ccc(-c2ccc(C(F)(F)F)cc2)cc1)C(=O)Cn1c(CCc2cccc(F)c2F)nc(=O)c2c1CCC2` registered an XC50 of 828 nM. Take `CCN(CC)CCN(Cc1ccc(-c2ccc(Cl)cc2)cc1)C(=O)Cn1c(CCc2cccc(F)c2F)nc(=O)c2ccccc21`: the XC50 was 769 nM. `Cc1cc(F)ccc1Nc1nc(N(C)c2ccccc2)c2cc(OCCCN(C)C)ccc2n1` returned an XC50 of 717 nM. As to `CC1CCCC(NCc2c(O)ccc3ccccc23)C1` (stereo not drawn), the XC50 is 931 nM. In turn, `COc1ccc(CCNC(=O)c2cc3c(=O)n4cccc(C)c4nc3n(C)c2=N)cc1` gave an XC50 of 762 nM. Compound `O=C(/C=C/c1ccc(Cl)c(Cl)c1)NCCCCCN1CCCN(C(=O)Nc2ccc(F)c(F)c2)CC1` returned an XC50 of 803 nM. In the case of `O=C(NC1CC1)c1ccc(Cn2c(SCc3cccc([N+](=O)[O-])c3)nc3ccccc3c2=O)cc1`, the XC50 is 764 nM. On to `O=[N+]([O-])c1cccc(Nc2nccc(-c3cnn4ncccc34)n2)c1`, for which the XC50 was found to be 184 nM. In turn, `COc1cc(Cc2cnc(N)nc2N)cc(OCCCc2cc(OCc3ccccc3)no2)c1OC` had an XC50 of 1870 nM. Take `O=C(/C=C/c1ccc(O)cc1)NC1CCC(CN2CCC(c3c[nH]c4ccccc34)CC2)CC1` (stereo not drawn): the XC50 amounted to 744 nM. `O=c1c(NCCCN(Cc2ccc(F)cc2)c2ccccn2)c(NCc2ccncc2)c1=O` displayed an XC50 of 153 nM. Next, `CCOC(=O)c1c(CN(CC)CC)n(-c2ccccc2)c2cc(Br)c(O)cc12`: 998 nM. In the case of `CCCC(C)Nc1nc(C)cc(N[C@@H](Cc2ccccc2)C(=O)NCCc2ccccc2)n1` (stereo partly drawn), the XC50 turned out to be 954 nM.

For `Cc1cc(N[C@@H](Cc2ccccc2)C(=O)NCCc2ccccc2)nc(NCC2CCCCC2)n1`, the XC50 was determined as 917 nM. In the case of `CCCn1c(=N)c(C(=O)NCCc2ccccc2)cc2c(=O)n3cccc(C)c3nc21`, the XC50 is 1120 nM. With `O=C(/C=C/c1ccc(Cl)c(Cl)c1)NCCCCCN1CC[C@H](NC(=O)Nc2ccc(Oc3ccccc3)cc2)C1`, the XC50 turned out to be 703 nM.

For `Cc1cccc2nc(-c3cccc(-c4cccc(NC(=O)c5ccncc5)c4)c3)[nH]c12`, the XC50 was 236 nM. Next, `COc1cc(-c2cc3cc(Cl)c(Cl)cc3[nH]2)ccc1C(=O)NC1CCN(Cc2ccccc2)CC1`: 531 nM; `Cc1cc(CNCCCCCCNCc2ccc(Cl)cc2)ccc1O`: 823 nM; `Cc1ccc2c(c1C)NC(=O)C21NN=C(c2ccccc2)S1` (stereo not drawn): 749 nM. As for `Oc1ccccc1Nc1nc(NCc2ccco2)c2ccccc2n1`, the XC50 was found to be 644 nM. `Cc1nc(N)nc(N)c1CCCOc1ccc(Br)cc1`: the XC50 came to 485 nM. Turning to `Cc1nc(C)c(-c2ccc(C(=O)c3ccc(Cl)cc3)cc2)c(O)c1Cl`, the XC50 is 535 nM. `Clc1ccc(-c2ccc(C=NNc3nc(=Nc4ccccc4)[nH]c(=Nc4ccccc4)[nH]3)o2)cc1Cl` came in with an XC50 of 736 nM. The compound `COc1ccc(NC(=O)Nc2ccc(-c3ccccc3)cc2)cc1Cn1cnc(N2CCCNCC2)cc1=O` returned an XC50 of 759 nM. Next, `COCCCN=C(S)NN=C(C)c1ccccn1`: 296 nM; `CC(C)CNCc1ccc(OCc2cccc(COc3ccc(CNCC(C)C)cc3I)c2)c(I)c1`: 772 nM. Compound `c1ccc(CNCc2cccc(-c3csc(-c4nc5ccccc5[nH]4)c3)c2)cc1` had an XC50 of 456 nM.

`CC(=O)c1c(Cc2ccccc2Cl)c[nH]c1C`: the XC50 worked out at 848 nM. With `CC(C)N(Cc1ccc(-c2ccc(C(F)(F)F)cc2)cc1)C(=O)Cn1c(SCc2cccc(F)c2F)cc(=O)c2cc(CN3CCCCC3)ccc21` the figure was 872 nM; with `Cc1cc(N[C@@H](Cc2ccccc2)C(=O)NCCOc2ccccc2)nc(Nc2ccccc2)n1`, 875 nM. `COc1nc2c(CCN3CC[C@H](NCc4ccc5c(c4)NC(=O)CO5)[C@H](O)C3)c(Cl)cnc2cc1F`: the XC50 is 1020 nM. Regarding `CCC(C)NS(=O)(=O)c1ccc2nc(Nc3ccc(C)cc3)n(C3CCCCC3)c2c1` (stereo not drawn), the XC50 is 462 nM. `CCCCCCCN1CC[C@@H](CCCc2ccnc3ccc(OCCCCNC(N)=O)cc23)[C@@H](CC)C1` came in with an XC50 of 835 nM.

The compound `Cc1nc(C)c(CC(=O)Nc2ccc(-c3cccc(-c4nc5cccc(C)c5[nH]4)c3)cc2)s1` displayed an XC50 of 596 nM. For `Cc1noc(-c2ccccc2)c1CN1CCCC2(CC(C(=O)NCc3cccc(F)c3F)=NO2)C1` (stereo not drawn), the XC50 was 1010 nM. `N#Cc1ccc(N[C@@H](CC2CCCCC2)C(=O)N[C@@H]2CCCc3ccccc32)c2ccccc12` displayed an XC50 of 728 nM. Compound `CC(C)c1ccc(C2CCN(CCCCNC(=O)c3ccc(NC(=O)c4ccc(C(F)(F)F)cc4)cc3)CC2)c(O)c1` yielded an XC50 of 579 nM.

The compound `O=C(Nc1ccc(Cl)c(C(F)(F)F)c1)c1ccc(C(=O)Nc2ccc(Cl)c(C(F)(F)F)c2)cc1` registered an XC50 of 1000 nM. `CCCCCCCCc1c(C)nc(C)c(I)c1O` had an XC50 of 737 nM. In the case of `Cc1[nH]c(C)c(-c2ccc(-c3cccc(Cl)c3)nc2)c(=O)c1Br`, the XC50 came out at 318 nM. With `CCCCCC(C)C(C)c1cc(O)c2c(c1)OC(C)(C)c1cnccc1-2` (stereo not drawn) the figure was 770 nM. For the compound `O=C(Nc1nc2cc(S(=O)(=O)NCc3ccc(Cl)c(Cl)c3)ccc2n1CCCn1ccnc1)c1ccc(Cl)cc1`, the XC50 is 727 nM. Next, `c1ccc(Oc2ccc(Nc3ccnc(Nc4cccc(CNCCCN5CCOCC5)c4)n3)cc2)cc1`: 1040 nM; `CCCCN(CCCC)CCCCNc1c2ccccc2nc2ccccc12`: 148 nM; `CC(C)(C)c1nn(-c2ccccc2)c2[nH]c(=O)c(CNCc3ccccc3)cc12`: 1050 nM.

Regarding `CC(=O)Nc1ccc(S(=O)(=O)N2CCN(c3nc(NC4CCCC4)c4ccccc4n3)CC2)cc1`, the XC50 amounted to 1030 nM. Next, `CCc1ccc(NC(=O)c2ccc(CN3CCCN(Cc4cccc(Cl)c4)CC3)cc2)cc1`: 1110 nM. As to `NCCCCc1c(-c2ccc(Cl)c(Cl)c2)[nH]c2ccc(Cl)cc12`, the XC50 was 912 nM. `Cc1ccc(-c2cc(C(=O)Nc3ccc(S(=O)(=O)N(C)Cc4ccccc4)cc3)[nH]n2)c(O)c1`: the XC50 worked out at 845 nM. As to `CN1CCN(c2ccc(CNc3ccc4ncc(-c5cccc(OC(F)(F)F)c5)n4n3)cc2)CC1`, the XC50 was determined as 862 nM. `COc1ccc(-c2ccc(NC(=O)c3ccc(F)cc3)cc2)cc1CNC(C)C` gave an XC50 of 758 nM.

`Cc1ccc(N2C(N)=NC(N)=NC2(C)C)cc1` registered an XC50 of 36.6 nM.

The compound `O=C(/C=C/c1ccc(CNCCN2CCOCC2)cc1)NCCc1ccccc1` gave an XC50 of 864 nM. With `CCOc1ccc2c(=NN=Cc3cccc(Cl)c3)cc(C)[nH]c2c1` the figure was 864 nM; with `c1cc(CN2CCN(c3ccncc3)CC2)cc(-c2cccc(-c3nc4ccccc4[nH]3)c2)c1`, 126 nM.

As to `COc1ccc(-c2cccc(CNC3CCN(C)CC3)c2)cc1S(=O)(=O)NCc1ccccc1`, the XC50 stood at 874 nM.

Take `COc1cccc(-c2csc(C(=O)NC3CCCCN(Cc4ccc(C(C)(C)C)cc4)C3)c2)c1` (stereo not drawn): the XC50 turned out to be 887 nM.

With `CCCN(Cc1nnc(-c2ccco2)o1)C(=O)C1CCCN(C(=O)c2ccc(Cl)cc2)C1` (stereo not drawn), the XC50 was determined as 518 nM. `CN(C)S(=O)(=O)n1ccc2c3c(N)nc(N)nc3ccc21` yielded an XC50 of 45.9 nM.

In turn, `COc1ccc(-c2ccc(NC(=O)c3cccc(Cl)c3)cc2)cc1CN(C)CCN(C)C` yielded an XC50 of 782 nM. In the case of `CCCC(CNCc1ccc(Cl)c(C(F)(F)F)c1)CNc1nc2cnccc2[nH]1` (stereo not drawn), the XC50 was determined as 291 nM. `CC(Nc1cc(-c2ccccn2)nc(-c2ccccn2)n1)c1ccccc1` (stereo not drawn) had an XC50 of 453 nM.

In turn, `Oc1ccc(CN2CCN(CCOC(c3ccccc3)c3ccc(Cl)cc3)CC2)cc1Cl` (stereo not drawn) returned an XC50 of 858 nM.

The compound `N=C(N)NC(=O)Nc1cc(Cl)c(F)c(Cl)c1` returned an XC50 of 635 nM. `O=S(=O)(c1c(Cl)cc(Cl)cc1Cl)N1CCCCC(c2ccc(F)c(F)c2)=N1` came in with an XC50 of 594 nM.

`CCc1c[nH]c2c(N(c3ccccc3)S(C)(=O)=O)cc(C(=O)N[C@@H](Cc3ccccc3)[C@H](O)CNC(C)(C)CCCC(C)C)cc12` came in with an XC50 of 823 nM. Turning to `COC(=O)c1ccc2nc(-c3ccc(/C=C/C(=O)NC4CCN(Cc5ccccc5)CC4)cc3)[nH]c2c1`, the XC50 came out at 711 nM. In turn, `Cc1ccccc1-c1cc(=O)c2cc(NC(=O)c3cccs3)ccc2o1` registered an XC50 of 218 nM. The compound `CN(C)c1nc2cc(-n3cnc4cc(-c5ccc(Cl)cc5)sc4c3=O)ccc2n1CCCN1CCCC1` showed an XC50 of 848 nM. Compound `Cc1csc(NC2=NCCN2)n1` displayed an XC50 of 471 nM. Turning to `O=C(NC1CCN(Cc2ccccc2)CC1)c1ccc(-c2nc3cc(Cl)c(Cl)cc3[nH]2)c(F)c1`, the XC50 turned out to be 736 nM. `CC(=O)c1c(CC(=O)O)c2ccccc2n1O`: the XC50 worked out at 735 nM. For `CC(Cc1ccc(OCc2ccccc2)cc1)NCC(O)c1cccc(Cl)c1` (stereo not drawn), the XC50 amounted to 547 nM.

For `Cc1ccccc1OCCCc1c(C)nc(N)nc1N`, the XC50 amounted to 277 nM. In the case of `N#Cc1cc(C(=O)Nc2ccccc2)c(N)nc1SCC(=O)Nc1ccc(Br)cc1`, the XC50 was 1100 nM.

`CCN1CCN(CCNc2c3ccccc3nc3ccccc23)CC1` yielded an XC50 of 1020 nM.

In turn, `O=C(O)c1cccnc1Sc1ccc(Cl)cc1` displayed an XC50 of 830 nM.

Consider `Cc1cc(N[C@@H](CC(C)C)C(=O)NCc2cccc(F)c2)nc(NCCc2ccc(F)cc2)n1`, for which the XC50 came out at 1470 nM. In turn, `Cc1cccc2nc(-c3cccc(-c4cccc(NC(=O)NCc5ccccc5)c4)c3)[nH]c12` registered an XC50 of 521 nM. Take `COc1cc2nc(NCCCOC(C)C)n3nc(-c4ccccc4)nc3c2cc1OC`: the XC50 amounted to 196 nM. `Cc1cc(C)n2nc(C(=O)Nc3cc(C(F)(F)F)ccc3N3CCOCC3)nc2n1`: the XC50 amounted to 119 nM.

For the compound `Cc1noc(C)c1-c1ccc2c(Nc3ccc([N+](=O)[O-])cc3)c(C(N)=O)cnc2c1`, the XC50 came to 692 nM. On to `COc1ccc(NC(=O)/C=C/c2ccccc2Cl)cc1OCCN1CCC(NCc2cccnc2)CC1`, for which the XC50 is 761 nM. With `Cc1ccc(-c2ccc(NC(=O)N3CCc4cc(Br)c(N5CCN(C)CC5)cc43)cc2)cn1` the figure was 1350 nM. With `CC(C)(C)c1ccc(NC(=O)Nc2ccc(Cn3ncc(N4CCCNCC4)c(Cl)c3=O)cc2)cc1` the figure was 752 nM; with `CC[C@H]1C[N+]2([O-])CC[C@@H]1C[C@H]2[C@H](O)c1cc(-c2ccccc2)nc2ccc(OC)cc12`, 840 nM; with `COc1ccc(CCN(C)CCOc2ccc(NC(=O)c3cccc4cc5ccccc5nc34)cc2)cc1OC`, 680 nM.
